# Measurements published in patent US20200253907A1, “Compositions and Methods for Treating Neurodegenerative Diseases” (The Regents of the University of California, priority 2017, published 2020).
# “Also recorded” adds a separate entry of the source.
# Columns and labels:
# GMC101 C. elegans strain = experiment: Paralysis assay in GMC101 C. elegans model of Alzheimer's disease; type: in vivo; details: for GMC101 paralysis: 4 mM, FIG. 3; for paralysis caused by Aβ: single agent, FIG. 4 (alanine 1-8 mM), FIG. 5 (KIC 2-32 mM)
# Description: To investigate the effects of small molecules in a C. elegans model of Alzheimer's disease, the GMC101 C. elegans strain, developed by Gawain McColl at the University of Melbourne, Australia, was used. The GMC101 C. elegans strain expresses the full length human amyloid beta 1-42 protein in the body wall muscle cells, leading to a fully penetrant age-progressive paralysis. These worms were first age-synchronized by performing an egg prep (mixed <100 gravid worms in 70 μl M9 buffer, 25 μl bleach and 5 μl 10 N NaOH). […] All worms were transferred to fresh plates on Day 5.
# [1] = system: differentiated PC-12 cells; experiment: Amyloid-beta induced cell death in differentiated PC-12 cells; type: cell-based; details: 200 μM, pretreated 2 hours before Aβ42 or Aβ25-35; 24-hour incubation; control cells 48.5±1.8%; FIG. 16
# Description: Overnight after seeding, cells were differentiated with NGF in 0.5% FCS, RPMI 1640 medium for 7 days.
smiles,measurement,setting,value
"CC[C@H](O)C(=O)O [2-HB, 2-hydroxybutyrate]",GMC101 paralysis,GMC101 C. elegans strain,can also delay GMC101 paralysis
"CCCCCCCCOC(=O)C(=O)CCC(=O)O [octyl α-KG, octyl α-ketoglutarate]",cells remaining alive (viable),[1],about 73±2.2%
"C[C@H](N)C(=O)O [alanine, L-alanine]",health span of GMC101,"GMC101 C. elegans strain; 2 mM alanine alone, FIG. 9",can extend health span of GMC101
same,health span of GMC101,"GMC101 C. elegans strain; 4 mM alanine alone, FIG. 10",can extend health span of GMC101
same,health span of GMC101,"GMC101 C. elegans strain; 8 mM alanine alone, FIG. 11",can extend health span of GMC101
same,paralysis caused by Aβ,GMC101 C. elegans strain,can reduce paralysis caused by Aβ
"CC(C)CC(=O)C(=O)O [KIC, α-ketoisocaproate]",beneficial effect in GMC101 (paralysis),GMC101 C. elegans strain; 16 mM KIC alone,not observed to exhibit beneficial effects; also recorded: does not exert a beneficial effect
same,paralysis caused by Aβ,GMC101 C. elegans strain,reduces paralysis caused by Aβ
"CCC(=O)C(=O)O [α-KB, α-ketobutyrate]",Aβ caused paralysis,"GMC101 C. elegans strain; about 2 mM, FIG. 2",can delay Aβ caused paralysis
"CC(O)CC(=O)O (stereo not shown) [3-HB, 3-hydroxybutyrate, reference compound]",GMC101 paralysis,GMC101 C. elegans strain,delay in paralysis is not observed
"CC(C)C(=O)C(=O)O [KIV, α-ketoisovalerate]",GMC101 health span,"GMC101 C. elegans strain; 8 mM, FIG. 6",can extend GMC101 health span
"O=C(O)CCC(=O)C(=O)O [α-KG, α-ketoglutarate]",health span of GMC101 C. elegans strain,"GMC101 C. elegans strain; 2 mM, FIG. 1",can extend the health span
same,delay of paralysis compared to vehicle treatment,"GMC101 C. elegans strain; 8 mM on NGM plates, worms shifted to 25° C.",22%
